Results as given in patent US4299767A, “Benzodiazepine derivatives” (Hoffmann-La Roche Inc., priority 1978, dated 1981).
Read-outs that look alike come from different tables or passages of the source.

Assays:
aldosterone = assay: aldosterone-antagonistic properties in adrenalectomised rats (urine volume, sodium and potassium excretion); assay type: in vivo, adrenalectomised female Holtzmann rats; conditions: for response vs control in vivo at 1 mg/kg / response vs control in vivo at 10 mg/kg / response vs control in vivo at 0.1 mg/kg / response vs control in vivo at 3 mg/kg: Rattus norvegicus, po
Protocol: If benzodiazepine derivatives of formula I are administered to the animals before the treatment with aldosterone, then there is observed, in comparison with the animals which are treated only with aldosterone (control animals), a pronounced increase of the sodium excretion (i.e. the sodium retention caused by aldosterone is antagonised), whereas the potassium excretion and the urine volume are influenced to a lesser extent.
The standard experiment is carried out as follows:
Female Holtzmann rates (150-180 g) are bilaterally adrenalectomised 70 to 74 hours before the beginning of the experiment. After the operation, the animals receive a customary rat dry feed and 0.9% sodium chloride solution for drinking. 16-17 hours before the beginning of the experiment the feed is removed from the animals, but they can still drink, as before, 0.9% sodium chloride solution ad libitum. At the beginning of the experiment the substance to be tested as an aldosterone-antagonist is administered to the animals by means of a stomach probe. 30 minutes later the animals receive a subcutaneous injection of […] of aldosterone. After a further 90 minutes, the urinary bladders of the animals are emptied by careful suprapublic pressure, whereupon the animals are placed individually in metabolic cages without food and without drink. The urine of the animals is then collected for 3hours, whereupon their urinary bladders are once more emptied. The spontaneously excreted urine and the remaining urine obtained at the conclusion of the experiment by pressing-out the urinary bladders are collected in graduated centrifuge glasses. Sodium and potassium concentrations in the urine are determined with a flame photometer.
(§1) The following Table contains results obtained in the previously described experiment with representative benzodiazepine derivatives of formula I. In this Table there are given for each benzodiazepine derivative in question the dosage administered (in mg/kg p.o.) as well as the percentage variation in the urine volume, the sodium excretion and the potassium excretion in comparison with the control animals (i.e. in comparison with the animals treated only with aldosterone). Moreover, the Table contains data relating to the acute toxicity of the benzodiazepine derivatives investigated (LD 50 in mg/kg in the case of a single oral administration to mice).

[1] = acute toxicity, single oral administration to mice; conditions: mouse, in vivo, p.o.
Text: as §1

[2] = acute toxicity, single oral administration to rats; conditions: rat, in vivo, p.o.
Text: (§2) The following Table contains results obtained with the aforementioned particularly preferred compounds inhibiting the intestinal resorption of cholesterol. For each of these compounds there are given the dose(s) administered (in μMol/kg p.o) as well as the cholesterol recovery (CHOREC), expressed in % of controls. Moreover, the Table contains data relating to the acute toxicity of the compounds investigated (LD 50 in mg/kg in the case of a single oral administration to rats): […]

[3] = tested on: intestinal resorption of cholesterol; assay: inhibition of the intestinal resorption of cholesterol (cholesterol recovery, CHOREC); assay type: in vivo, normal female Fullinsdorf albino rats; conditions: rats
Protocol: The compounds to be tested are administered to groups of 6 normal female Fullinsdorf albino rats (body weight about 70 g) by oral intubation. This is followed immediately by oral intubation of a test meal containing radioactive cholesterol. Consecutively, feces are collected for three days, freeze dried and pulverized. An aliquot is burned for evaluation of fecal radioactivity. Controls excrete about 40-50% of the dietary radioactive cholesterol called cholesterol recovery (CHOREC) and arbitrarily set 100%. Animals treated with a substance inhibiting the intestinal resorption of cholesterol show a higher excretion of radioactive cholesterol in comparison with controls. The cholesterol recovery (CHOREC) of treated animals is expressed in % of controls.
as §2

[4] = read-out: potassium excretion [K+], in %, based on control animals
[5] = read-out: sodium excretion [Na+], in %, based on control animals
[6] = read-out: urine volume, in %, based on control animals
[7] = aldosterone alone, in comparison with untreated animals

Structure (SMILES): CN1C(=O)CN=C(c2ccccc2F)c2c1ccc(NC(=O)NCCO)c2Cl [Example 13, 1-[6-chloro-5-(o-fluorophenyl)-2,3-dihydro-1-methyl-2-oxo-1H-1,4-benzodiazepin-7-yl]-3-(2-hydroxyethyl)urea]
- response vs control in vivo at 1 mg/kg (aldosterone; [4]): 110%
- response vs control in vivo at 1 mg/kg (aldosterone; [5]): 242%
- response vs control in vivo at 1 mg/kg (aldosterone; [6]): 140%
- LD50 [1]: > 5000 mg/kg

Structure (SMILES): CCN(C)C(=O)Nc1ccc2c(c1)C(c1ccccc1F)=NCC(=O)N2C [Example 4, 1-ethyl-3-[5-(o-fluorophenyl)-2,3-dihydro-1-methyl-2-oxo-1H-1,4-benzodiazepin-7-yl]-1-methylurea]
- response vs control in vivo at 1 mg/kg (aldosterone; [4]): 97%
- response vs control in vivo at 1 mg/kg (aldosterone; [5]): 291%
- response vs control in vivo at 1 mg/kg (aldosterone; [6]): 100%
- LD50 [1]: > 5000 mg/kg

Structure (SMILES): CCN(CC)C(=O)Nc1ccc2c(c1Cl)C(c1ccccc1F)=NCC(=O)N2C [Example 11, 3-[6-chloro-5-(o-fluorophenyl)-2,3-dihydro-1-methyl-2-oxo-1H-1,4-benzodiazepin-7-yl]-1,1-diethylurea]
- response vs control in vivo at 10 mg/kg (aldosterone; [4]): 110%
- response vs control in vivo at 10 mg/kg (aldosterone; [5]): 236%
- response vs control in vivo at 10 mg/kg (aldosterone; [6]): 124%
- LD50 [1]: > 5000 mg/kg

Structure (SMILES): CN1C(=O)CN=C(c2ccccc2F)c2cc(NC(=O)NC(C)(C)C)ccc21 [Example 2, 1-tert.butyl-3-[5-(o-fluorophenyl)-2,3-dihydro-1-methyl-2-oxo-1H-1,4-benzodiazepin-7-yl]urea]
- response vs control in vivo at 1 mg/kg (aldosterone; [4]): 132%
- response vs control in vivo at 10 mg/kg (aldosterone; [4]): 70%
- response vs control in vivo at 1 mg/kg (aldosterone; [5]): 236%
- response vs control in vivo at 10 mg/kg (aldosterone; [5]): 234%
- response vs control in vivo at 1 mg/kg (aldosterone; [6]): 194%
- response vs control in vivo at 10 mg/kg (aldosterone; [6]): 105%
- LD50 [1]: 600 to 1200 mg/kg

Structure (SMILES): CC1N=C(c2ccccc2F)c2c(ccc(NC(=O)NCCO)c2Br)N(C)C1=O (racemic) [Example 50, rac-1-[6-bromo-5-(o-fluorophenyl)-2,3-dihydro-1,3-dimethyl-2-oxo-1H-1,4-benzodiazepin-7-yl]-3-(2-hydroxyethyl)urea]
- LD50 [2]: > 5000 mg/kg
- cholesterol recovery (CHOREC), in % of controls ([3]; 10 μMol/kg p.o.): 132%
- cholesterol recovery (CHOREC), in % of controls ([3]; 30 μMol/kg p.o.): 160%
- cholesterol recovery (CHOREC), in % of controls ([3]; 100 μMol/kg p.o.): 155%
- cholesterol recovery (CHOREC), in % of controls ([3]; 300 μMol/kg p.o.): 169%
- cholesterol recovery (CHOREC), in % of controls ([3]; 1000 μMol/kg p.o.): 189%

Structure (SMILES): CN1C(=O)CN=C(c2ccccc2F)c2cc(NC(=O)N3CC3)ccc21 [Example 5, N-[5-(o-fluorophenyl)-2,3-dihydro-1-methyl-2-oxo-1H-1,4-benzodiazepin-7-yl]-1-aziridinecarboxamide]
- response vs control in vivo at 1 mg/kg (aldosterone; [4]): 146%
- response vs control in vivo at 10 mg/kg (aldosterone; [4]): 108%
- response vs control in vivo at 1 mg/kg (aldosterone; [5]): 294%
- response vs control in vivo at 10 mg/kg (aldosterone; [5]): 237%
- response vs control in vivo at 1 mg/kg (aldosterone; [6]): 192%
- response vs control in vivo at 10 mg/kg (aldosterone; [6]): 129%
- LD50 [1]: > 5000 mg/kg

Structure (SMILES): CN1C(=O)CN=C(c2ccccc2F)c2c1ccc(NC(=O)N1CCOCC1)c2Cl [Example 51, N-[6-chloro-5-(o-fluorophenyl)-2,3-dihydro-1-methyl-2-oxo-1H-1,4-benzodiazepin-7-yl]-4-morpholinecarboxamide]
- LD50 [2]: 1250 to 2500 mg/kg
- cholesterol recovery (CHOREC), in % of controls ([3]; 1000 μMol/kg p.o.): 186%

Structure (SMILES): C[C@]12CCC(=O)C=C1CC[C@@H]1[C@@H]2[C@@H](O)C[C@]2(C=O)[C@@H](C(=O)CO)CC[C@@H]12 [aldosterone, reference compound]
- excreted urine volume (aldosterone; [7]): reduction of the excreted urine volume
- potassium excretion (aldosterone; [7]): increased potassium excretion
- sodium excretion (aldosterone; [7]): pronounced reduction of the sodium excretion

Structure (SMILES): CN1C(=O)CN=C(c2ccccc2F)c2cc(NC(=O)NCc3ccccc3)ccc21 [Example 3, 1-benzyl-3-[5-(o-fluorophenyl)-2,3-dihydro-1-methyl-2-oxo-1H-1,4-benzodiazepin-7-yl]urea]
- response vs control in vivo at 1 mg/kg (aldosterone; [4]): 153%
- response vs control in vivo at 1 mg/kg (aldosterone; [5]): 255%
- response vs control in vivo at 1 mg/kg (aldosterone; [6]): 139%
- LD50 [1]: > 5000 mg/kg

Structure (SMILES): CC(CO)NC(=O)Nc1ccc2c(c1)C(c1ccccc1F)=NCC(=O)N2C (racemic) [Example 8, rac-1-[5-(o-fluorophenyl)-2,3-dihydro-1-methyl-2-oxo-1H-1,4-benzodiazepin-7-yl]-3-(2-hydroxy-1-methylethyl)urea]
- response vs control in vivo at 1 mg/kg (aldosterone; [4]): 80%
- response vs control in vivo at 10 mg/kg (aldosterone; [4]): 129%
- response vs control in vivo at 1 mg/kg (aldosterone; [5]): 127%
- response vs control in vivo at 10 mg/kg (aldosterone; [5]): 452%
- response vs control in vivo at 1 mg/kg (aldosterone; [6]): 73%
- response vs control in vivo at 10 mg/kg (aldosterone; [6]): 200%
- LD50 [1]: > 5000 mg/kg

Structure (SMILES): CN1C(=O)CN=C(c2ccccc2F)c2cc(NC(=O)N3CCCC3)ccc21 [Example 6, N-[5-(o-fluorophenyl)-2,3-dihydro-1-methyl-2-oxo-1H-1,4-benzodiazepin-7-yl]-1-pyrrolidinecarboxamide]
- response vs control in vivo at 1 mg/kg (aldosterone; [4]): 112%
- response vs control in vivo at 1 mg/kg (aldosterone; [5]): 308%
- response vs control in vivo at 1 mg/kg (aldosterone; [6]): 184%
- LD50 [1]: > 5000 mg/kg

Structure (SMILES): CN1C(=O)CN=C(c2ccccc2F)c2cc(NC(=O)NCCO)ccc21 [Example 7, 1-[5-(o-fluorophenyl)-2,3-dihydro-1-methyl-2-oxo-1H-1,4-benzodiazepin-7-yl]-3-(2-hydroxyethyl)urea]
- response vs control in vivo at 0.1 mg/kg (aldosterone; [4]): 121%
- response vs control in vivo at 0.1 mg/kg (aldosterone; [5]): 247%
- response vs control in vivo at 0.1 mg/kg (aldosterone; [6]): 85%
- LD50 [1]: > 5000 mg/kg

Structure (SMILES): CNC(=O)Nc1ccc2c(c1)C(c1ccccc1F)=NCC(=O)N2C [Example 1, 1-[5-(o-Fluorophenyl)-2,3-dihydro-1-methyl-2-oxo-1H-1,4-benzodiazepin-7-yl]-3-methylurea]
- response vs control in vivo at 3 mg/kg (aldosterone; [4]): 84%
- response vs control in vivo at 3 mg/kg (aldosterone; [5]): 182%
- response vs control in vivo at 3 mg/kg (aldosterone; [6]): 95%
- LD50 [1]: > 5000 mg/kg

Structure (SMILES): CN(C)C(=O)Nc1ccc2c(c1)C(c1ccccc1F)=NCC(=O)N2C [Example 32, 3-[5-(o-fluorophenyl)-2,3-dihydro-1-methyl-2-oxo-1H-1,4-benzodiazepin-7-yl]-1,1-dimethylurea]
- response vs control in vivo at 10 mg/kg (aldosterone; [4]): 91%
- response vs control in vivo at 10 mg/kg (aldosterone; [5]): 190%
- response vs control in vivo at 10 mg/kg (aldosterone; [6]): 102%
- LD50 [1]: > 5000 mg/kg

Structure (SMILES): COc1ccc(NC(=O)Nc2ccc3c(c2)C(c2ccccc2F)=NCC(=O)N3C)cc1 [Example 33, 1-[5-(o-fluorophenyl)-2,3-dihydro-1-methyl-2-oxo-1H-1,4-benzodiazepin-7-yl]-3-(p-methoxyphenyl)urea]
- response vs control in vivo at 10 mg/kg (aldosterone; [4]): 145%
- response vs control in vivo at 10 mg/kg (aldosterone; [5]): 240%
- response vs control in vivo at 10 mg/kg (aldosterone; [6]): 117%
- LD50 [1]: > 5000 mg/kg

Structure (SMILES): CNC(=O)Nc1ccc2c(c1Cl)C(c1ccccc1F)=NCC(=O)N2C [Example 9, 1-[6-chloro-5-(o-fluorophenyl)-2,3-dihydro-1-methyl-2-oxo-1H-1,4-benzodiazepin-7-yl]-3-methylurea]
- response vs control in vivo at 1 mg/kg (aldosterone; [4]): 91%
- response vs control in vivo at 1 mg/kg (aldosterone; [5]): 330%
- response vs control in vivo at 1 mg/kg (aldosterone; [6]): 178%
- LD50 [1]: 1250 to 2500 mg/kg

Structure (SMILES): CCN(C)C(=O)Nc1ccc2c(c1Cl)C(c1ccccc1F)=NCC(=O)N2C [Example 12, 3-[6-chloro-5-(o-fluorophenyl)-2,3-dihydro-1-methyl-2-oxo-1H-1,4-benzodiazepin-7-yl]-1-ethyl-1-methylurea]
- response vs control in vivo at 1 mg/kg (aldosterone; [4]): 118%
- response vs control in vivo at 1 mg/kg (aldosterone; [5]): 278%
- response vs control in vivo at 1 mg/kg (aldosterone; [6]): 136%
- LD50 [1]: 2500 to 5000 mg/kg

Structure (SMILES): CCCCNC(=O)Nc1ccc2c(c1Cl)C(c1ccccc1F)=NCC(=O)N2C [Example 10, 1-butyl-3-[6-chloro-5-(o-fluorophenyl)-2,3-dihydro-1-methyl-2-oxo-1H-1,4-benzodiazepin-7-yl]urea]
- response vs control in vivo at 1 mg/kg (aldosterone; [4]): 104%
- response vs control in vivo at 1 mg/kg (aldosterone; [5]): 380%
- response vs control in vivo at 1 mg/kg (aldosterone; [6]): 175%
- LD50 [1]: > 5000 mg/kg

Structure (SMILES): CCNC(=O)Nc1ccc2c(c1Cl)C(c1ccccc1F)=NCC(=O)N2C [Example 34, 1-[6-chloro-5-(o-fluorophenyl)-2,3-dihydro-1-methyl-2-oxo-1H-1,4-benzodiazepin-7-yl]-3-ethylurea]
- response vs control in vivo at 10 mg/kg (aldosterone; [4]): 149%
- response vs control in vivo at 10 mg/kg (aldosterone; [5]): 271%
- response vs control in vivo at 10 mg/kg (aldosterone; [6]): 156%
- LD50 [1]: 2500 to 5000 mg/kg
